# Measurements reported in the supplement of paper PMC11061612.
# How the values were obtained:
# [1] = compound: COc1cc([C@@H]2c3cc4c(cc3[C@@H](O[C@@H]3O[C@@H]5CO[C@@H](C)O[C@H]5[C@H](O)[C@H]3O)[C@H]3COC(=O)[C@H]23)OCO4)cc(OC)c1O [Etoposide]; settings: max 10 µM
# In short: (§1)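 Cancer cell lines were plated in 1536-well plates in 7.5 μl of DMEM/F12 or RPMI with 10% FBS and kept 24 hours at 37°C and 5% CO2 before 72 hours of dosing, with final DMSO typically 0.2%. CellTiter-Glo 2.0 luminescence measured viability, scaled between blank-well and DMSO-well means. Dose responses were fitted to a two-parameter logistic curve with a non-linear mixed effects model. This fit gives the single-agent IC50.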
# [2] = compound: C1CC(C1)(C(=O)[O-])C(=O)[O-].N.N.[Pt+2] [Carboplatin]; settings: max 10 µM
# In short: as §1
# [3] = compound: NC1(c2ccc(-c3nc4ccn5c(=O)[nH]nc5c4cc3-c3ccccc3)cc2)CCC1 [MK-2206]; settings: max 10 µM
# In short: as §1
# [4] = compound: Cn1cnc2c(F)c(Nc3ccc(Br)cc3Cl)c(C(=O)NOCCO)cc21 [Selumetinib]; settings: max 10 µM
# In short: as §1
# [5] = compound: CCN(CCO)CCCOc1ccc2c(Nc3cc(CC(=O)Nc4cccc(F)c4)[nH]n3)ncnc2c1 [AZD2811]; settings: max 1 µM
# In short: as §1
# [6] = compound: CC1(C)CCC(CN2CCN(c3ccc(C(=O)NS(=O)(=O)c4ccc(NCC5CCOCC5)c([N+](=O)[O-])c4)c(Oc4cnc5[nH]ccc5c4)c3)CC2)=C(c2ccc(Cl)cc2)C1 [Venetoclax]; settings: max 1 µM
# In short: as §1
# [7] = compound: COc1cccc(OCCCN)c1-c1cc(Nc2cnc(C#N)cn2)n[nH]1 [Prexasertib]; settings: max 1 µM
# In short: as §1
# [8] = compound: CN(CC[C@H](CSC1=CC=CC=C1)NC2=C(C=C(C=C2)S(=O)(=O)NC(=O)C3=CC=C(C=C3)N4CCC(CC4)[C@H](C5=CC=CC=C5C6=CC=C(C=C6)Cl)O)S(=O)(=O)C(F)(F)F)CCO [AZD4320]; settings: max 1 µM
# In short: as §1
# [9] = compound: Cc1c2c(nn1C)CSCc1cc(n(C)n1)CSc1cc(c3ccccc3c1)OCCCc1c(C(=O)O)n(C)c3c-2c(Cl)ccc13 [AZD5991]; settings: max 1 µM
# In short: as §1
# [10] = compound: C[C@@H](Nc1cc(F)cc(F)c1)c1cc(C(=O)N(C)C)cc2c(=O)cc(N3CCOCC3)oc12 [AZD8186]; settings: max 10 µM
# In short: as §1
# [11] = compound: CC1=C(C(=CC=C1)Cl)NC(=O)C2=CN=C(S2)NC3=CC(=NC(=N3)C)N4CCN(CC4)CCO [Dasatinib]; settings: max 2 µM
# In short: as §1
# [12] = compound: Cc1nc(-c2cn3c(n2)-c2ccc(-c4cnn(C(C)(C)C(N)=O)c4)cc2OCC3)n(C(C)C)n1 [Taselisib]; settings: max 10 µM
# In short: as §1
# [13] = compound: C=CCn1c(=O)c2cnc(Nc3ccc(N4CCN(C)CC4)cc3)nc2n1-c1cccc(C(C)(C)O)n1 [AZD1775]
# In short: as §1
# [14] = compound: CC(C)n1c(=O)n(C)c2cnc3cc(F)c(-c4ccc(OCCCN5CCCCC5)nc4)cc3c21 [AZD1390]; settings: max 0.3 µM
# In short: as §1
# [15] = compound: N#Cc1cnc(Nc2cc(NC[C@H]3CNCCO3)c(C(F)(F)F)cn2)cn1 [SRA737]; settings: max 10 µM
# In short: as §1
# [16] = compound: C1CN(CCC1(C(=O)N[C@@H](CCO)C2=CC=C(C=C2)Cl)N)C3=NC=NC4=C3C=CN4 [AZD5363]; settings: max 10 µM
# In short: as §1
# [17] = compound: COc1cccc2c1C(=O)c1c(O)c3c(c(O)c1C2=O)C[C@@](O)(C(=O)CO)C[C@@H]3O[C@H]1C[C@H](N)[C@H](O)[C@H](C)O1 [Doxorubicin]; settings: max 1 µM
# In short: as §1
# [18] = compound: COc1cc2ncnc(Nc3ccc(F)c(Cl)c3)c2cc1OCCCN1CCOCC1 [Gefitinib]; settings: max 10 µM
# In short: as §1
# [19] = compound: COc1cc(Nc2ncc3c(n2)-c2ccc(Cl)cc2C(c2c(F)cccc2OC)=NC3)ccc1C(=O)O [Alisertib]; settings: max 10 µM
# In short: as §1
# [20] = compound: CC1=CN2[C@@H](C1)C=NC3=CC(=C(C=C3C2=O)OC)OCCCCCOC4=C(C=C5C(=C4)N=C[C@@H]6CC(=CN6C5=O)C)OC [SG3199]; settings: max 0.001 µM
# In short: as §1
# [21] = compound: C[C@@H](c1ccc2nccn2c1)n1nnc2ncc(-c3cnn(C)c3)nc21 [Savolitinib]; settings: max 1 µM
# In short: as §1
# [22] = compound: Nc1ccn([C@@H]2O[C@H](CO)[C@@H](O)C2(F)F)c(=O)n1 [Gemcitabine]; settings: max 0.3 µM
# In short: as §1
# [23] = compound: CS(=O)(=O)CCNCc1ccc(-c2ccc3ncnc(Nc4ccc(OCc5cccc(F)c5)c(Cl)c4)c3c2)o1 [Lapatinib]; settings: max 10 µM
# In short: as §1
# [24] = compound: O=c1[nH]cc(F)c(=O)[nH]1 [5-Fluorouracil]; settings: max 20 µM
# In short: as §1
# [25] = compound: CCc1c2c(nc3ccc(O)cc13)-c1cc3c(c(=O)n1C2)COC(=O)[C@]3(O)CC [SN-38]; settings: max 0.3 µM
# In short: as §1
# [26] = compound: CN(C)CCCOc1ccc(-c2ccc3ncc4c(c3c2)n(C2CCOCC2)c(=O)n4C)cn1 [AZD0156]
# In short: as §1
# [27] = compound: C[C@@H]1COCCN1C2=NC(=NC(=C2)C3(CC3)[S@](=N)(=O)C)C4=C5C=CNC5=NC=C4 [AZD6738]; settings: max 10 µM
# In short: as §1
# [28] = compound: CC(=O)c1c(C)c2cnc(Nc3ccc(N4CCNCC4)cn3)nc2n(C2CCCC2)c1=O [Palbociclib]; settings: max 10 µM
# In short: as §1
# [29] = compound: C[C@@H](Oc1cc(-c2cnn(C3CCNCC3)c2)cnc1N)c1c(Cl)ccc(F)c1Cl [Crizotinib]; settings: max 10 µM
# In short: as §1
# [30] = compound: CC(=O)O[C@H]1C(=O)[C@@]2(C)[C@H]([C@H](OC(=O)c3ccccc3)[C@]3(O)C[C@H](OC(=O)[C@H](O)[C@@H](NC(=O)c4ccccc4)c4ccccc4)C(C)=C1C3(C)C)[C@]1(OC(C)=O)CO[C@@H]1C[C@@H]2O [Paclitaxel]; settings: max 3 µM
# In short: as §1
# [31] = compound: COc1nnc2ccc(N3CCC(c4ccc(OCCN5CCN(C)C(=O)[C@H]5C)cc4)CC3)nn12 [AZD5153]; settings: max 1 µM
# In short: as §1
# [32] = compound: O=C(c1cc(Cc2n[nH]c(=O)c3ccccc23)ccc1F)N1CCN(C(=O)C2CC2)CC1 [Olaparib]; settings: max 10 µM
# In short: as §1
# [33] = compound: Cc1cc2ncnn2cc1Nc1ncc2c(n1)n(C1CCOCC1)c(=O)n2C [AZD7648]; settings: max 10 µM
# In short: as §1
# [34] = compound: O=C(Nc1ccc2[nH]nc(-c3ccncc3)c2c1)[C@@H]1CCN(CC(=O)N2CCN(c3ccc(-c4ncccn4)cc3)CC2)C1; settings: max 5 µM
# In short: as §1
# [35] = compound: CC(=O)Nc1cccc(-n2c(=O)n(C3CC3)c(=O)c3c(Nc4ccc(I)cc4F)n(C)c(=O)c(C)c32)c1 [Trametinib]; settings: max 1 µM
# In short: as §1
Cell Line,"IC50, cell viability 72 h [1] [nM]","IC50, cell viability 72 h [2] [nM]","IC50, cell viability 72 h [3] [nM]","IC50, cell viability 72 h [4] [nM]","IC50, cell viability 72 h [5] [nM]","IC50, cell viability 72 h [6] [nM]","IC50, cell viability 72 h [7] [nM]","IC50, cell viability 72 h [8] [nM]","IC50, cell viability 72 h [9] [nM]","IC50, cell viability 72 h [10] [nM]","IC50, cell viability 72 h [11] [nM]","IC50, cell viability 72 h [12] [nM]","IC50, cell viability 72 h ([13]; max 1 µM) [nM]","IC50, cell viability 72 h [14] [nM]","IC50, cell viability 72 h [15] [nM]","IC50, cell viability 72 h [16] [nM]","IC50, cell viability 72 h [17] [nM]","IC50, cell viability 72 h [18] [nM]","IC50, cell viability 72 h [19] [nM]","IC50, cell viability 72 h [20] [nM]","IC50, cell viability 72 h [21] [nM]","IC50, cell viability 72 h [22] [nM]","IC50, cell viability 72 h [23] [nM]","IC50, cell viability 72 h [24] [nM]","IC50, cell viability 72 h [25] [nM]","IC50, cell viability 72 h ([26]; max 1 µM) [nM]","IC50, cell viability 72 h [27] [nM]","IC50, cell viability 72 h [28] [nM]","IC50, cell viability 72 h [29] [nM]","IC50, cell viability 72 h [30] [nM]","IC50, cell viability 72 h [31] [nM]","IC50, cell viability 72 h [32] [nM]","IC50, cell viability 72 h [33] [nM]","IC50, cell viability 72 h [34] [nM]","IC50, cell viability 72 h [35] [nM]","IC50, cell viability 72 h ([13]; max 3 µM) [nM]","IC50, cell viability 72 h ([26]; max 3 µM) [nM]"
SW48 (Colorectal Carcinoma),517,> 10000,> 10000,> 10000,23.9,> 1000,117,> 1000,> 1000,> 10000,> 2000,2370,> 1000,> 300,> 10000,> 10000,68.6,> 10000,58.4,> 1,> 1000,92.6,8920,> 20000,13.3,> 1000,7010,> 10000,3360,3.37,254,> 10000,> 10000,1330,123,,
SW948 (Colorectal Carcinoma),> 10000,> 10000,> 10000,1080,> 1000,> 1000,136,> 1000,> 1000,> 10000,> 2000,343,,> 300,> 10000,6290,> 1000,> 10000,44.4,> 1,> 1000,> 300,> 10000,> 20000,> 300,,> 10000,> 10000,5440,29.9,918,> 10000,> 10000,2470,35.2,1390,> 3000
Saos-2 (Osteosarcoma),3650,> 10000,> 10000,> 10000,971,> 1000,102,> 1000,> 1000,> 10000,> 2000,3210,,> 300,> 10000,> 10000,556,> 10000,9260,> 1,> 1000,36.4,> 10000,> 20000,10.9,,> 10000,> 10000,5110,44.6,887,> 10000,> 10000,> 5000,> 1000,1230,> 3000
WSU-DLCL2 (B-Cell Non-Hodgkin's Lymphoma),730,> 10000,1670,> 10000,> 1000,> 1000,18.8,794,137,5810,> 2000,2700,,> 300,> 10000,253,53.9,> 10000,1640,> 1,> 1000,6.5,> 10000,> 20000,5.96,,2690,7440,8080,4.48,55.9,> 10000,> 10000,> 5000,> 1000,531,2150
YT (Other Blood Carcinomas),374,> 10000,> 10000,> 10000,> 1000,> 1000,26.8,> 1000,49.4,> 10000,> 2000,1790,,> 300,4810,> 10000,511,> 10000,> 10000,> 1,> 1000,36.5,> 10000,808,4.13,,3170,4040,8370,46.5,196,> 10000,6930,> 5000,> 1000,442,> 3000
